As usually defined, the Kd is the free concentration of one partner at which half of the binding sites on the other are occupied at equilibrium, for simple one-to-one binding.

The text below walks through data of publication PMC5727260, “The Sam-Sam interaction between Ship2 and the EphA2 receptor: design and analysis of peptide inhibitors” (Scientific Reports, 2017).

Positions of bridges follow the written chain, without caps; N, C: chain ends. Residues, ends and D or L forms follow the SMILES beside them. Chains are numbered I, II in the order given.

The target in one assay is T1, Ship2-Sam (Homo sapiens, UniProt O15357).
T1 construct: Its C-terminal sterile alpha motif domain (Ship2-Sam); made in house; host or cells: E. coli
T1 sequence (O15357 1196-1258 limits assumed): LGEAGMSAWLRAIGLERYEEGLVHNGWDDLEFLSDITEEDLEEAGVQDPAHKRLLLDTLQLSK
Briefly: SPR binding of peptides to immobilized Ship2-Sam. As to conditions: for SPR binding to Ship2-Sam (RUmax): RUmax at 30 and 100 µM peptide, normalized for molecular weight. As for the experimental part: In order to investigate the interaction with Ship2-Sam, all peptides were analysed by SPR experiments (Figs 2, 3 and S5).
SPR experiments were conducted as previously reported.
SPR assays were conducted with the following parameters: (i) flow: 20 μL/min, (ii) contact time: 4.5 min; (iii) running buffer: HBS (HEPES (10 mM), NaCl (150 mM), EDTA (3 mM), pH 7.4).
Reference channel signals were subtracted as blanks and the software BIAevaluation (version 4.1, GE Healthcare) was employed to estimate kinetic and thermodynamic parameters of the complexes.
In general terms: In SPR one partner is held on a chip, and binding of the other changes the refractive index at the surface.

The target of another assay is EphA2 SAM (Homo sapiens) (UniProt P29317). Briefly: ITC. To be noted: cited from earlier work.
Sequence of EphA2 SAM (Homo sapiens) (P29317 901-971): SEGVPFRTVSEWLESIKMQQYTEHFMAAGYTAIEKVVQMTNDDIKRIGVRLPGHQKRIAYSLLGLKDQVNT

Turning to `CC[C@H](C)[C@H](NC(=O)[C@H](CCCNC(=N)N)NC(=O)[C@H](CCCCN)NC(C)=O)C(=O)NCC(=O)N[C@H](C(=O)N[C@@H](CCCNC(=N)N)C(=O)N[C@@H](CC(C)C)C(=O)N1CCC[C@H]1C(=O)NCC(=O)N[C@@H](Cc1c[nH]cn1)C(=O)N[C@@H](CCC(N)=O)C(=O)N[C@@H](CCCCN)C(=O)N[C@@H](CCCNC(=N)N)C(=O)N[C@@H](CSSC[C@H](NC(=O)[C@H](CO)NC(C)=O)C(=O)N[C@@H](CCCCN)C(=O)N[C@@H](CCSC)C(=O)N[C@@H](CCC(N)=O)C(=O)N[C@@H](CCC(N)=O)C(N)=O)C(=O)N[C@@H](C)C(=O)N[C@@H](Cc1ccc(O)cc1)C(=O)N[C@@H](CO)C(=O)N[C@@H](CC(C)C)C(=O)N[C@@H](CC(C)C)C(=O)NCC(=O)N[C@@H](CC(C)C)C(=O)N[C@@H](CCCCN)C(=O)N[C@@H](CC(=O)O)C(=O)N[C@@H](CCC(N)=O)C(=O)N[C@H](C(N)=O)C(C)C)C(C)C` [S13-SS] (I: Ac-KRIGVRLPGHQKRCAYSLLGLKDQV-NH2 / II: Ac-SCKMQQ-NH2; disulfide I:14-II:2), the “SPR binding to Ship2-Sam (RUmax)” value on Ship2-Sam was “significant dose-response signal variations”. Further, the “SPR sensorgrams, saturation” value at Ship2-Sam (wider concentration range (Fig. S5b)) was “does not reach saturation”. On to Ac-GHQKRIAY-NH2 [KRI], for which, at Ship2-Sam, the “SPR binding to Ship2-Sam (RUmax)” value is listed as “not able to bind Ship2-Sam”. Regarding Ac-KRIAYKRIAY-NH2 [(KRI)2], at Ship2-Sam, the “SPR binding to Ship2-Sam (RUmax)” value is “not able to bind Ship2-Sam”.

Take Ship2 SAM (from UniProt O15357): the Kd with EphA2 SAM (Homo sapiens) is 750 nM.
